pIC50: −log10 of the molar value.

This passage reports IC50 results from ChEMBL document CHEMBL2146378, “Curcumin is an inhibitor of calcium/calmodulin dependent protein kinase II” (Bioorg Med Chem, 2012).

Experiment [1] addresses T1, Calcium/calmodulin-dependent protein kinase type II subunit alpha (Homo sapiens, UniProt Q9UQM7). The experiment is described as follows: Inhibition of autophosphorylated alphaCaMK2 using GST-NR2A as substrate incubated for 1 min prior to substrate addition measured after 1 min.
A short description of experiment [2]: Inhibition of Albino Wistar rat CaMK2 in brain cytosolic fraction using GST-NR2A as substrate incubated for 1 min prior to substrate addition measured after 1 min in presence of EGTA. The format is tissue-based.
The target of experiment [3] is T1, Calcium/calmodulin-dependent protein kinase type II subunit alpha. The experiment can be described thus: Inhibition of alphaCaMK2 using GST-NR2A as substrate incubated for 1 min prior to substrate addition measured after 1 min.
Experiment [4] is described as follows: Inhibition of Albino Wistar rat CaMK2 in postsynaptic density fraction using GST-NR2A as substrate incubated for 1 min prior to substrate addition measured after 1 min.
A short description of experiment [5]: Inhibition of Albino Wistar rat CaMK2 autophosphorylation at Thr286 in postsynaptic density fraction using [gamma32P]ATP incubated for 30 secs prior to ATP addition measured after 30 secs.
Experiment [6] addresses T1, Calcium/calmodulin-dependent protein kinase type II subunit alpha. The experiment is described as follows: Inhibition of alphaCaMK2 autophosphorylation at Thr286 using [gamma32P]ATP incubated for 30 secs prior to ATP addition measured after 30 secs.
Experiment [7] can be described thus: Inhibition of Albino Wistar rat CaMK2 in brain cytosolic fraction using GST-NR2A as substrate incubated for 1 min prior to substrate addition measured after 1 min. The format is tissue-based.
The target in experiment [8] is T1, Calcium/calmodulin-dependent protein kinase type II subunit alpha. The experiment is described as follows: Inhibition of autophosphorylated alphaCaMK2 using GST-NR2A as substrate incubated for 1 min prior to substrate addition measured after 1 min in presence of EGTA.
Experiment [9] in a line: Inhibition of Albino Wistar rat CaMK2 autophosphorylation at Thr286 in brain cytosolic fraction using [gamma32P]ATP incubated for 30 secs prior to ATP addition measured after 30 secs. The format is tissue-based.
The nature of experiment [10]: Inhibition of Albino Wistar rat CaMK2 in postsynaptic density fraction using GST-NR2A as substrate incubated for 1 min prior to substrate addition measured after 1 min in presence of EGTA.
In experiment [11] the target is Calcium/calmodulin-dependent protein kinase type II subunit alpha (Homo sapiens, UniProt Q9UQM7, T286D). The experiment can be described thus: Inhibition of alphaCaMK2 T286D mutant using GST-NR2A as substrate incubated for 1 min prior to substrate addition measured after 1 min in presence of EGTA.
Sequence of Calcium/calmodulin-dependent protein kinase type II subunit alpha (Homo sapiens, UniProt Q9UQM7, T286D) (Q9UQM7 whole entry T286D): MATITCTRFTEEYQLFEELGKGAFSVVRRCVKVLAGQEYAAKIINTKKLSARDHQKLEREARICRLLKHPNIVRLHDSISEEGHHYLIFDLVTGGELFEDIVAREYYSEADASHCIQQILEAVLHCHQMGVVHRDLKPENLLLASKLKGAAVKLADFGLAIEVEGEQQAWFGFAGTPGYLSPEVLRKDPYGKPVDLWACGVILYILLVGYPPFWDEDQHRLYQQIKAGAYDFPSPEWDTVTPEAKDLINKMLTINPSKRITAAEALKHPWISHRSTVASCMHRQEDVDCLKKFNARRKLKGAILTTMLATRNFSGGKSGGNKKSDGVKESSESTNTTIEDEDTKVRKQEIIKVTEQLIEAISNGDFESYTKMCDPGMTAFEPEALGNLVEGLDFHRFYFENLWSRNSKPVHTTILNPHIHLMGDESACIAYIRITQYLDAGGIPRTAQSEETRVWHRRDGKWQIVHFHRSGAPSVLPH

T1 sequence (Q9UQM7 whole entry): as the sequence (Q9UQM7 whole entry T286D) above, with D286T counted along it

A word on the pIC50: it is the negative decadic logarithm of the IC50, by convention in mol/L. Consider `COc1cc(/C=C/c2cc(/C=C/c3ccc(O)c(OC)c3)on2)ccc1O`, for which the pIC50 is 4.61 in [1]; 4.86 in experiment [2]; 4.94 in experiment [3]; 4.64 in experiment [4]; 4.64 in experiment [5]; 4.74 in experiment [6]. The negative logarithm of the IC50 (pIC50) was 4.54 in experiment [7], 6.17 in [8], 4.77 in [9] and 4.72 in experiment [10].

For the compound `COc1cc(/C=C/c2cc(/C=C/c3ccc(O)c(OC)c3)n(-c3ccccc3)n2)ccc1O`, the pIC50 is 4.10 in experiment [1]; 4.02 in [2]; 4.43 in [3]; 3.99 in experiment [4]; 4.17 in [5]; 3.95 in [6]. Besides, the pIC50 is 4.03 in experiment [7], 4.27 in [8], 4.10 in experiment [9] and 4.21 in experiment [10].

On to `COc1cc(/C=C/C(=O)CC(=O)/C=C/c2ccc(O)c(OC)c2)ccc1O` (stereo in doubt) [CURCUMIN], for which the pIC50 in [1] was 4.35; in experiment [11], 4.43; in experiment [2] it was 4.19; in [3], 4.68; in [4], 4.10; in experiment [5] it was 4.16. The negative-log IC50 (pIC50) in experiment [6] is 4.48; in [7], 3.95; in experiment [8] it was 4.47; in experiment [9] it was 3.84; in experiment [10] it was 4.48.

For `COc1cc(/C=C/C(=O)CC(=O)/C=C/c2ccc(O)c(OC)c2)ccc1O` (stereo in doubt; 1) [CURCUMIN], the pIC50 in experiment [3] is 4.89.

`O=C(/C=C/c1ccc(O)cc1)CC(=O)/C=C/c1ccc(O)cc1` [BISDEMETHOXYCURCUMIN]: the negative-log IC50 (pIC50) in experiment [3] was 4.43.

Consider `COc1cc(/C=C/c2cc(/C=C/c3ccc(O)c(OC)c3)[nH]n2)ccc1O` [CURCUMIN PYRAZOLE], for which the negative-log IC50 (pIC50) in experiment [1] was 5.20; in experiment [2] it was 6.36; in [3] it was 5.83; in experiment [4], 5.44; in experiment [5], 5.12; in experiment [6], 5.19. For the same compound, the negative-log IC50 (pIC50) is 5.36 in experiment [7], 6.54 in [8], 4.79 in experiment [9] and 6.47 in experiment [10].

Turning to `COc1cc(/C=C/C(O)=C/C(=O)/C=C/c2ccc(O)cc2)ccc1O` [DEMETHOXYCURCUMIN], the pIC50 in experiment [3] was 4.62.
